Data: patent US20260098026A1, “M4 ACTIVATORS/MODULATORS AND USES THEREOF” (Cerevel Therapeutics, LLC, priority 2022, published 2026)

Key:
[1] = target: T1, M3 muscarinic acetylcholine receptor (mAChR) (Homo sapiens, UniProt P20309); assay: FLIPR calcium assay (Fluo 8), M3-overexpressing CHO-K1 cells; format: cell-based; conditions: FLIPR calcium
T1 construct: expressed in transfected cells; host or cells: CHO-K1
Method: Stimulation of a Gq-coupled G-protein coupled receptors (GPCRs), result in an efflux of calcium from the endoplasmic reticulum to the cytoplasm (Berridge, 1993), thus rendering this assay appropriate for the assessment of M1, M3 and M5 receptors. CHO-K1 cells overexpressing the M1, M3, or M5 muscarinic acetylcholine receptor (mAChR) were dispensed at 15,000 cells per well in 30 μl volume to 384-well plates and grown overnight at 37° C. in a 5% CO2 atmosphere. Fluo-8 Solution, 10 μl per well, was added to each well and incubated for 30 minutes at 37° C. in a 5% CO2 atmosphere. Compounds diluted in Hanks' balanced salt solution (HBSS) were transferred to the cell assay plate at 10 μl per well, and then read on a FLIPR instrument. EC50 and Emax figures were calculated from the resulting data for each receptor subtype.

[2] = target: T2, M4 mAChR (Homo sapiens, UniProt P08173); assay: cAMP TR-FRET assay with forskolin, M4-overexpressing CHO-K1 cells; format: cell-based; conditions: cAMP TR-FRET with forskolin
T2 construct: expressed in transfected cells; host or cells: CHO-K1
T2 sequence (P08173 1-479): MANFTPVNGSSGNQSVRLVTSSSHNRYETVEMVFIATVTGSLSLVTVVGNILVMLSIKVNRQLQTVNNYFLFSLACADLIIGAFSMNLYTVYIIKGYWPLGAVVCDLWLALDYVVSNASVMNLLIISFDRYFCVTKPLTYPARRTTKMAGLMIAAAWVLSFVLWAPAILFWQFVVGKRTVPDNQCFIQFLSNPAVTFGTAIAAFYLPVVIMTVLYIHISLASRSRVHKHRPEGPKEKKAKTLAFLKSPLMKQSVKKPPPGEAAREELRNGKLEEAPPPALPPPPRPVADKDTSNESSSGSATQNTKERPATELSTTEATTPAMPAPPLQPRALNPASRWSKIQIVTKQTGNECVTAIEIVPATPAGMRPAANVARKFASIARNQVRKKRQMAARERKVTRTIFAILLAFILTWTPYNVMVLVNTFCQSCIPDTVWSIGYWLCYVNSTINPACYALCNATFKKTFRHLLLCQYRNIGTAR
Excerpt: The M2 and M4 mACh receptors are Gi-coupled receptors which, upon activation, produce a decrease in cAMP. Assays were developed that measured the potency and efficacy of compounds at the M2 or M4 mAChR using M2- or M4-overexpressing CHO-K1 cell lines. Time-resolved fluorescence resonance energy transfer (TR-FRET) technology was used, where signal occurs as a result of transfer of energy if the donor molecule is in close proximity to an acceptor molecule when the molecules have bound to the molecule of interest. The cAMP detection is a competition binding assay, where cAMP produced by cells competes for binding with the labeled donor molecule to the anti-cAMP acceptor antibody. Due to the low basal levels of cAMP in the CHO-K1 cell line, forskolin was used to increase cAMP levels to enable assessment of agonist activity at the mAChR of interest.

T1 sequence (P20309 whole entry): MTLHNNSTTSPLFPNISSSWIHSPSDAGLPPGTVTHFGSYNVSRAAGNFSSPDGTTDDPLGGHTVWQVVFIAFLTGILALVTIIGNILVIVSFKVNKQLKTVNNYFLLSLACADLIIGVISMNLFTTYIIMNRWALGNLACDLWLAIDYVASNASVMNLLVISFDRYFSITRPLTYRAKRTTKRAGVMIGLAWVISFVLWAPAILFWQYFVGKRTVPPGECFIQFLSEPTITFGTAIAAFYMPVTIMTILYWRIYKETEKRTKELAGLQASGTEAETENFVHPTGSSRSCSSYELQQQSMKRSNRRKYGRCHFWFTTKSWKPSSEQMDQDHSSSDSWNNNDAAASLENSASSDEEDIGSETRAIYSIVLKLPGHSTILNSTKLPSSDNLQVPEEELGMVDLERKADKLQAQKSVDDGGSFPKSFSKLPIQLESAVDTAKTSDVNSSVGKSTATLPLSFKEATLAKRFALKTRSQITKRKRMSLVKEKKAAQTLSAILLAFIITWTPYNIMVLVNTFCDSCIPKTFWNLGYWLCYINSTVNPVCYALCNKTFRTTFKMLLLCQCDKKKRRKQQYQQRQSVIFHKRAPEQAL

CCOC(=O)N1CC2(CC[C@@H](N3CCN(c4cc(F)cnc4-c4ccc5cnn(C)c5c4)CC3)C2)C1 [Compound A54]
EC50 [1]: > 10 µM
Emax [2]: 80 to 100%

CCOC(=O)N1CC2(CC[C@@H](N3CCN(c4cc(F)cnc4-c4ccnc(F)c4)CC3)C2)C1 [Compound A55]
EC50 [1]: > 10 µM
Emax [2]: 80 to 100%

CCOC(=O)N1CC2(CC[C@@H](N3CCN(c4cc(F)cnc4-c4ccc(N(C)C)nc4)CC3)C2)C1 [Compound A56]
EC50 [1]: > 10 µM
Emax [2]: 80 to 100%

CCOC(=O)N1CC2(CC[C@@H](N3CCN(c4cc(F)cnc4-c4cccc(CO)c4)CC3)C2)C1 [Compound A57]
EC50 [1]: > 10 µM
Emax [2]: 80 to 100%

CCOC(=O)N1CC2(CC[C@@H](N3CCN(c4cc(F)cnc4-c4cccc5c4cnn5C)CC3)C2)C1 [Compound A58]
EC50 [1]: > 10 µM
Emax [2]: 80 to 100%

CCOC(=O)N1CC2(CC[C@@H](N3CCN(c4cc(F)cnc4-c4cccc5nn(C)cc45)CC3)C2)C1 [Compound A60]
EC50 [1]: > 10 µM
Emax [2]: 80 to 100%

CCOC(=O)N1CC2(CC[C@@H](N3CCN(c4cc(F)cnc4-c4cccc5c[nH]nc45)CC3)C2)C1 [Compound A61]
EC50 [1]: > 10 µM
Emax [2]: 80 to 100%

CCOC(=O)N1CC2(CC[C@@H](N3CCN(c4cc(F)cnc4-c4cccc5n[nH]cc45)CC3)C2)C1 [Compound A62]
EC50 [1]: > 10 µM
Emax [2]: 80 to 100%

CCOC(=O)N1CC2(CC[C@@H](N3CCN(c4cc(F)cnc4-c4ccncc4C#N)CC3)C2)C1 [Compound A64]
EC50 [1]: > 10 µM
Emax [2]: 80 to 100%

CCOC(=O)N1CC2(CC[C@@H](N3CCN(c4cc(F)cnc4-c4cccc5cnn(C)c45)CC3)C2)C1 [Compound A65]
EC50 [1]: > 10 µM
Emax [2]: 50 to 79.9%

CCOC(=O)N1CC2(CC[C@@H](N3CCN(c4cc(F)cnc4-c4ccc5cn(C)nc5c4)CC3)C2)C1 [Compound A68]
EC50 [1]: > 10 µM
Emax [2]: 80 to 100%

CCOC(=O)N1CC2(CC[C@@H](N3CCN(c4cc(F)cnc4-c4cnccc4OC)CC3)C2)C1 [Compound A69]
EC50 [1]: > 10 µM
Emax [2]: 80 to 100%

CCOC(=O)N1CC2(CC[C@@H](N3CCN(c4cc(F)cnc4-c4ccc(OC)c(CO)c4)CC3)C2)C1 [Compound A72]
EC50 [1]: > 10 µM
Emax [2]: 50 to 79.9%

CCOC(=O)N1CC2(CC[C@@H](N3CCN(c4cc(F)cnc4-c4cnc(N(C)C)nc4)CC3)C2)C1 [Compound A73]
EC50 [1]: > 10 µM
Emax [2]: 80 to 100%

CCOC(=O)N1CC2(CC[C@@H](N3CCN(c4cc(F)cnc4-c4ccnn4CC(C)C)CC3)C2)C1 [Compound A77]
EC50 [1]: > 10 µM
Emax [2]: 80 to 100%

CCOC(=O)N1CC2(CC[C@@H](N3CCN(c4cc(F)cnc4-c4c(C)noc4C)CC3)C2)C1 [Compound A78]
EC50 [1]: > 10 µM
Emax [2]: 80 to 100%

CCOC(=O)N1CC2(CC[C@@H](N3CCN(c4cc(F)cnc4-c4cnc(F)c(F)c4)CC3)C2)C1 [Compound A79]
EC50 [1]: > 10 µM
Emax [2]: 80 to 100%

CCOC(=O)N1CC2(CC[C@@H](N3CCN(c4cc(F)cnc4-c4c(C)n[nH]c4C)CC3)C2)C1 [Compound A81]
EC50 [1]: > 10 µM
Emax [2]: 80 to 100%

CCOC(=O)N1CC2(CC[C@@H](N3CCN(c4cc(F)cnc4-c4cnc(C#N)c(F)c4)CC3)C2)C1 [Compound A83]
EC50 [1]: > 10 µM
Emax [2]: 80 to 100%

C=CCn1cc(-c2ncc(F)cc2N2CCN([C@@H]3CCC4(C3)CN(C(=O)OCC)C4)CC2)cn1 [Compound A84]
EC50 [1]: > 10 µM
Emax [2]: 80 to 100%

CCOC(=O)N1CC2(CC[C@@H](N3CCN(c4cc(F)cnc4-c4c[nH]nc4C(F)(F)F)CC3)C2)C1 [Compound A85]
EC50 [1]: > 10 µM
Emax [2]: 80 to 100%

CCOC(=O)N1CC2(CC[C@@H](N3CCN(c4cc(F)cnc4-c4csc(CO)c4)CC3)C2)C1 [Compound A86]
EC50 [1]: > 10 µM
Emax [2]: 80 to 100%

CCOC(=O)N1CC2(CC[C@@H](N3CCN(c4cc(F)cnc4-c4ccc(CO)s4)CC3)C2)C1 [Compound A88]
EC50 [1]: > 10 µM
Emax [2]: 80 to 100%

CCOC(=O)N1CC2(CC[C@@H](N3CCN(c4cc(F)cnc4-c4ccnc5c4ccn5C)CC3)C2)C1 [Compound A89]
EC50 [1]: > 10 µM
Emax [2]: 80 to 100%

CCOC(=O)N1CC2(CC[C@@H](N3CCN(c4cc(F)cnc4-c4cccc(CCO)c4)CC3)C2)C1 [Compound A90]
EC50 [1]: > 10 µM
Emax [2]: 80 to 100%

CCOC(=O)N1CC2(CC[C@@H](N3CCN(c4cc(F)cnc4-c4ccn5ccnc5c4)CC3)C2)C1 [Compound A92]
EC50 [1]: > 10 µM
Emax [2]: 80 to 100%

CCOC(=O)N1CC2(CC[C@@H](N3CCN(c4cc(F)cnc4-c4ccc(C#N)cc4OC)CC3)C2)C1 [Compound A94]
EC50 [1]: > 10 µM
Emax [2]: 80 to 100%

CCOC(=O)N1CC2(CC[C@@H](N3CCN(c4cc(F)cnc4-c4ccc5c(c4)OCCN5)CC3)C2)C1 [Compound A95]
EC50 [1]: > 10 µM
Emax [2]: 80 to 100%

CCOC(=O)N1CC2(CC[C@@H](N3CCN(c4cc(F)cnc4-c4ccc5nccn5c4)CC3)C2)C1 [Compound A96]
EC50 [1]: > 10 µM
Emax [2]: 80 to 100%

CCOC(=O)N1CC2(CC[C@@H](N3CCN(c4cc(F)cnc4-c4cccc(C(=O)NC)c4)CC3)C2)C1 [Compound A97]
EC50 [1]: > 10 µM
Emax [2]: 80 to 100%

CCOC(=O)N1CC2(CC[C@@H](N3CCN(c4cc(F)cnc4-c4ccnc(C)c4)CC3)C2)C1 [Compound A98]
EC50 [1]: > 10 µM
Emax [2]: 80 to 100%

CCOC(=O)N1CC2(CC[C@@H](N3CCN(c4cc(F)cnc4-c4cnc5c(ccn5C)c4)CC3)C2)C1 [Compound A99]
EC50 [1]: > 10 µM
Emax [2]: 80 to 100%

CCOC(=O)N1CC2(CC[C@@H](N3CCN(c4cc(F)cnc4-c4cc(C)[nH]n4)CC3)C2)C1 [Compound A101]
EC50 [1]: > 10 µM
Emax [2]: 80 to 100%

CCOC(=O)N1CC2(CC[C@@H](N3CCN(c4cc(F)cnc4-c4ccn(C)c(=O)c4)CC3)C2)C1 [Compound A102]
EC50 [1]: > 10 µM
Emax [2]: 80 to 100%

CCOC(=O)N1CC2(CC[C@@H](N3CCN(c4cc(F)cnc4-c4ccc(F)c(CO)c4)CC3)C2)C1 [Compound A105]
EC50 [1]: > 10 µM
Emax [2]: 80 to 100%

CCOC(=O)N1CC2(CC[C@@H](N3CCN(c4cc(F)cnc4-c4ccnc(OC)c4F)CC3)C2)C1 [Compound A106]
EC50 [1]: > 10 µM
Emax [2]: 80 to 100%

CCOC(=O)N1CC2(CC[C@@H](N3CCN(c4cc(F)cnc4-c4ccc(OCC)nc4)CC3)C2)C1 [Compound A107]
EC50 [1]: > 10 µM
Emax [2]: 80 to 100%

CCOC(=O)N1CC2(CC[C@@H](N3CCN(c4cc(F)cnc4-c4cc(C)cnc4F)CC3)C2)C1 [Compound A108]
EC50 [1]: > 10 µM
Emax [2]: 80 to 100%

CCOC(=O)N1CC2(CC[C@@H](N3CCN(c4cc(F)cnc4-c4cccnc4C)CC3)C2)C1 [Compound A109]
EC50 [1]: > 10 µM
Emax [2]: 80 to 100%

CCOC(=O)N1CC2(CC[C@@H](N3CCN(c4cc(F)cnc4-c4ccnc(OC)c4)CC3)C2)C1 [Compound A110]
EC50 [1]: > 10 µM
Emax [2]: 80 to 100%

CCOC(=O)N1CC2(CC[C@@H](N3CCN(c4cc(F)cnc4-c4cnc(OC)c(C)c4)CC3)C2)C1 [Compound A111]
EC50 [1]: > 10 µM
Emax [2]: 80 to 100%

CCOC(=O)N1CC2(CC[C@@H](N3CCN(c4cc(F)cnc4-c4ccc(OC)c(F)c4)CC3)C2)C1 [Compound A112]
EC50 [1]: > 10 µM
Emax [2]: 80 to 100%
